From patent publication US20220202912A1, “Polypeptides in Preparation of Drugs for Treatment or Prevention of Rheumatoid Arthritis” (priority 2011, published 2022)
Where no end group is shown, it is not given here.

Columns and labels:
[1] = tested on: AIA transgenic TNF-luc mice; assay: adjuvant-induced arthritis in transgenic TNF-luc mice (swelling, scores, weight, HE staining); format: in vivo, BALB/c transgenic TNF-luc mice; design: right ankle swelling / left ankle swelling / left toe swelling / right toe swelling / changes of weight (added value): unit not given here; conditions: Adalimumab 8 mg/kg
Description: 8 animals are randomly divided into 4 groups (n=2), a normal group, a model group, a positive drug group and a test group. On day 0, the initial left and right ankle thicknesses, initial left and right foot palm thicknesses and initial left and right toe thicknesses of each group of mice are measured. On day 0, 50 μL/mouse complete Freund's adjuvant is injected into the bottom of the left toe of each group of mice, and the treatment is started after secondary inflammation appears in the right foot of each group of mice on day 17. On day 17, the normal group and the model group are hypodermically injected with 0.9% normal saline (0.2 mL/20 g of body weight), once every 2 days, 7 times in total. The positive drug Adalimumab group is hypodermically injected with Adalimumab (8 mg/kg of body weight), once every 15 days, once in total. The test group is hypodermically injected with mPEG-SC20k-HM-3 (20 mg/kg of body weight), once every 2 days, 7 times in total. The treatment lasts for 15 days. Then, medication is stopped for observation for one week, and the mice are killed one week later.
On day 0, the initial ankle widths, foot palm widths and toe thicknesses of left and right feet are measured with a vernier caliper as initial values. Every 2 days, the left and right ankle widths, foot palm widths and toe thicknesses of each group of mice are measured separately with the vernier caliper, and compared with the initial values to calculate the changes in the swelling degree.
The joints of the mouse paw are observed with naked eyes, and the joints are scored every 2 days from day 17. Scoring is performed in terms of level 0 to level 4, 5 levels in total.
After the secondary inflammation appears, systemic scoring is performed every 2 days.
(§1) Changes of expression of TNF-α and IL-6 are analyzed by HE staining and immunohistochemistry in the ankle joint, spleen and thymus of the mice. Observation and photographing are performed under the FOVs of ×200 and ×400 times respectively, 5 FOVs are taken randomly for each picture, and data statistics is performed.

IL-6 = assay: immunohistochemistry of IL-6 in spleen and thymus, AIA transgenic TNF-luc mice; format: in vivo, BALB/c transgenic TNF-luc mice; conditions: Adalimumab 8 mg/kg, mPEG-SC20k-HM-3 20 mg/kg
Description: as §1

TNF-α = assay: in vivo imaging of TNF-α expression, CIA transgenic TNF-luc mice; design: species or system BALB/c transgenic TNF-luc mice; conditions: day 36; Adalimumab 8 mg/kg, mPEG-SC20k-HM-3 20 mg/kg
Description: […] After the mice are lightly anesthetized with ether, the mice are fixed within 5-20 min and put into an in vivo imager, the imager is covered with an instrument lid, on-fluro and om-photo names in the desktop imaging interface of the computer are clicked, and the expose button is clicked to complete the fluorescence and white light photos of mice in vivo imaging. The specific imaging principle, operation steps, image processing and output are the same as those in the previous embodiment.

[2] = 0 d, before treatment (starts day 17), mPEG-SC20k-HM-3 20 mg/kg groups
[3] = 1 d, before treatment (starts day 17), mPEG-SC20k-HM-3 20 mg/kg groups
[4] = 3 d, before treatment (starts day 17), mPEG-SC20k-HM-3 20 mg/kg groups
[5] = 6 d, before treatment (starts day 17), mPEG-SC20k-HM-3 20 mg/kg groups
[6] = 9 d, before treatment (starts day 17), mPEG-SC20k-HM-3 20 mg/kg groups
[7] = 12 d, before treatment (starts day 17), mPEG-SC20k-HM-3 20 mg/kg groups
[8] = 16 d, before treatment (starts day 17), mPEG-SC20k-HM-3 20 mg/kg groups
[9] = 17 d (treatment starts), mPEG-SC20k-HM-3 20 mg/kg sc
[10] = 19 d, mPEG-SC20k-HM-3 20 mg/kg sc
[11] = 22 d, mPEG-SC20k-HM-3 20 mg/kg sc
[12] = 25 d, mPEG-SC20k-HM-3 20 mg/kg sc
[13] = 28 d, mPEG-SC20k-HM-3 20 mg/kg sc
[14] = 31 d, mPEG-SC20k-HM-3 20 mg/kg sc

**Q.** How did the “changes of weight (added value)” value [1, 2] turn out when “mPEG-SC20k-Ile-Val-Arg-Arg-Ala-Asp-Arg-Ala-Ala-Val-Pro-Gly-Gly-Gly-Gly-Arg-Gly-Asp ({mPEG‑SC 20k}-IVRRADRAAVPGGGGRGD) [polypeptide III, No. 3]” was run?
**A.** 0.00 ± 0.00

**Q.** What about the left ankle swelling [1, 2] of the same substance?
**A.** 0.000 ± 0.000

**Q.** What about the “left foot (palm) swelling” value [1, 2] of the same substance?
**A.** 0.000 ± 0.000

**Q.** And the left toe swelling [1, 2]?
**A.** 0.000 ± 0.000

**Q.** What about the left ankle swelling [1, 3] of the same substance?
**A.** 0.188 ± 0.018

**Q.** What about the “left foot (palm) swelling” value [1, 3] of the same substance?
**A.** 0.163 ± 0.052

**Q.** And the left toe swelling [1, 3]?
**A.** 0.255 ± 0.027

**Q.** And the “changes of weight (added value)” value [1, 4]?
**A.** 0.27 ± 0.06

**Q.** What about the left ankle swelling [1, 4] of the same substance?
**A.** 0.204 ± 0.074

**Q.** What about the “left foot (palm) swelling” value [1, 4] of the same substance?
**A.** 0.174 ± 0.088

**Q.** And the left toe swelling [1, 4]?
**A.** 0.225 ± 0.106

**Q.** And the “changes of weight (added value)” value [1, 5]?
**A.** 0.28 ± 0.25

**Q.** What about the left ankle swelling [1, 5] of the same substance?
**A.** 0.265 ± 0.031

**Q.** What about the “left foot (palm) swelling” value [1, 5] of the same substance?
**A.** 0.207 ± 0.055

**Q.** What about the left toe swelling [1, 5] of the same substance?
**A.** 0.261 ± 0.126

**Q.** What about the “changes of weight (added value)” value [1, 6] of the same substance?
**A.** 0.40 ± 0.39

**Q.** What about the left ankle swelling [1, 6] of the same substance?
**A.** 0.251 ± 0.029

**Q.** What about the “left foot (palm) swelling” value [1, 6] of the same substance?
**A.** 0.224 ± 0.062

**Q.** And the left toe swelling [1, 6]?
**A.** 0.260 ± 0.156

**Q.** And the “changes of weight (added value)” value [1, 7]?
**A.** 0.42 ± 0.66

**Q.** What about the left ankle swelling [1, 7] of the same substance?
**A.** 0.265 ± 0.028

**Q.** What about the “left foot (palm) swelling” value [1, 7] of the same substance?
**A.** 0.228 ± 0.054

**Q.** And the left toe swelling [1, 7]?
**A.** 0.303 ± 0.103

**Q.** And the “changes of weight (added value)” value ([1]; 15 d, before treatment (starts day 17), mPEG-SC20k-HM-3 20 mg/kg groups)?
**A.** 0.67 ± 1.06

**Q.** What about the left ankle swelling [1, 8] of the same substance?
**A.** 0.274 ± 0.020

**Q.** And the “left foot (palm) swelling” value [1, 8]?
**A.** 0.221 ± 0.041

**Q.** What about the left toe swelling [1, 8] of the same substance?
**A.** 0.294 ± 0.092

**Q.** What about the right ankle swelling [1, 8] of the same substance?
**A.** 0.024 ± 0.011

**Q.** And the “right foot palm swelling” value [1, 8]?
**A.** 0.007 ± 0.007

**Q.** And the right toe swelling [1, 8]?
**A.** 0.015 ± 0.021

**Q.** What about the joint index score [1, 9] of the same substance?
**A.** 7.50 ± 0.70

**Q.** What about the “whole body (systemic) score” value [1, 9] of the same substance?
**A.** 5.50 ± 0.70

**Q.** And the “changes of weight (added value)” value [1, 10]?
**A.** 0.97 ± 1.09

**Q.** What about the left ankle swelling [1, 10] of the same substance?
**A.** 0.297 ± 0.005

**Q.** And the right ankle swelling [1, 10]?
**A.** 0.019 ± 0.009

**Q.** And the “right foot palm swelling” value [1, 10]?
**A.** 0.010 ± 0.011

**Q.** What about the “changes of weight (added value)” value [1, 11] of the same substance?
**A.** 0.82 ± 0.57

**Q.** What about the left ankle swelling [1, 11] of the same substance?
**A.** 0.252 ± 0.006

**Q.** What about the “right foot palm swelling” value [1, 11] of the same substance?
**A.** 0.003 ± 0.016

**Q.** And the “changes of weight (added value)” value [1, 12]?
**A.** 0.61 ± 0.72

**Q.** And the left ankle swelling [1, 12]?
**A.** 0.219 ± 0.013

**Q.** And the left toe swelling [1, 12]?
**A.** 0.292 ± 0.107

**Q.** What about the right toe swelling [1, 12] of the same substance?
**A.** 0.015 ± 0.027

**Q.** And the “changes of weight (added value)” value [1, 13]?
**A.** 1.13 ± 0.18

**Q.** What about the right ankle swelling [1, 13] of the same substance?
**A.** 0.021±0.013

**Q.** And the “changes of weight (added value)” value [1, 14]?
**A.** 1.15 ± 0.40

**Q.** What about the left toe swelling [1, 14] of the same substance?
**A.** 0.270 ± 0.127

**Q.** What about the “HE staining of ankle joints: pathological symptoms vs model group” value ([1]; mPEG-SC20k-HM-3 20 mg/kg) of the same substance?
**A.** relieved to some extent

**Q.** And the “immunohistochemical score of IL-6 in spleen” value (IL-6)?
**A.** 0.006±0.002

**Q.** What about the “immunohistochemical score of IL-6 in thymus” value (IL-6) of the same substance?
**A.** 0.068±0.033

**Q.** And the “in vivo fluorescence densities” value (TNF-α)?
**A.** 19.02±9.69 10^5
